# Structures can show the parent of a compound that is named as a salt.
# System: HIV/EBOV pseudovirion
# Assay type: cell-based, Ebolavirus Zaire
compound,measurement,value
"Cc1cn([C@H]2C[C@H](N=[N+]=[N-])[C@@H](CO)O2)c(=O)[nH]c1=O [AZT, Azidothymidine]",Antiviral effect by time of compound addition,still effective even when it was introduced at a very late time points (>8 h)
"CN1[C@@H]2CC[C@H]1C[C@@H](OC(c1ccccc1)c1ccccc1)C2 [benztropine, Benztropine mesylate]",Antiviral effect by time of compound addition,started to lose its inhibitory effect when it was added at 2 h post entry and beyond

# From paper PMC5666694 (Antiviral research, 2017)
